Assay results from PubChem BioAssay (NCI).
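Growth conditions: 96-well plates. Treatment: test compound, 48 hours, 5 concentrations. Analysis: linear interpolation between bracketing concentrations; unreached endpoints set to highest concentration. TGI: concentration producing complete growth inhibition.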

Columns and labels:
Assay in all cases: inhibition of tumour cell growth, NCI panel, 48 h
ACHN renal = tested on: ACHN renal
CAKI-1 renal = tested on: CAKI-1 renal
CCRF-CEM leukemia = tested on: CCRF-CEM leukemia
EKVX NSCLC = tested on: EKVX NSCLC
HL-60(TB) leukemia = tested on: HL-60(TB) leukemia
HT29 colon = tested on: HT29 colon
IGROV1 ovarian = tested on: IGROV1 ovarian
K-562 leukemia = tested on: K-562 leukemia
LOX IMVI melanoma = tested on: LOX IMVI melanoma
NCI-H23 lung = tested on: NCI-H23 lung
NCI-H460 lung = tested on: NCI-H460 lung
OVCAR-4 ovarian = tested on: OVCAR-4 ovarian
RXF 393 renal = tested on: RXF 393 renal
SF-268 CNS = tested on: SF-268 CNS
SF-539 CNS = tested on: SF-539 CNS
SK-MEL-5 melanoma = tested on: SK-MEL-5 melanoma
TK-10 renal = tested on: TK-10 renal
UACC-257 melanoma = tested on: UACC-257 melanoma
UACC-62 melanoma = tested on: UACC-62 melanoma
NCI-H226 lung = tested on: NCI-H226 lung

| Structure (SMILES) | TGI (ACHN renal) [µM] | TGI (CAKI-1 renal) [µM] | TGI (CCRF-CEM leukemia) [µM] | TGI (EKVX NSCLC) [µM] | TGI (HL-60(TB) leukemia) [µM] | TGI (HT29 colon) [µM] | TGI (IGROV1 ovarian) [µM] | TGI (K-562 leukemia) [µM] | TGI (LOX IMVI melanoma) [µM] | TGI (NCI-H23 lung) [µM] | TGI (NCI-H460 lung) [µM] | TGI (OVCAR-4 ovarian) [µM] | TGI (RXF 393 renal) [µM] | TGI (SF-268 CNS) [µM] | TGI (SF-539 CNS) [µM] | TGI (SK-MEL-5 melanoma) [µM] | TGI (TK-10 renal) [µM] | TGI (UACC-257 melanoma) [µM] | TGI (UACC-62 melanoma) [µM] | TGI (NCI-H226 lung) [µM] |
| --- | --- | --- | --- | --- | --- | --- | --- | --- | --- | --- | --- | --- | --- | --- | --- | --- | --- | --- | --- | --- |
| O=P(O)(O)CCP(=O)(O)O | > 100 | > 100 | > 100 | > 100 | > 100 | > 100 | > 100 | > 100 | > 100 | > 100 | > 100 | > 100 | > 100 | > 100 | > 100 | > 100 | > 100 | > 100 | > 100 | – |
| NC(CCCCCP(=O)(c1ccccc1)C1C=CC=CC1)C(=O)O (configuration not stated) | > 100 | > 100 | > 100 | > 100 | > 100 | > 100 | > 100 | > 100 | > 100 | > 100 | > 100 | > 100 | > 100 | > 100 | > 100 | > 100 | > 100 | > 100 | > 100 | – |
| CCN(CC)CCNc1ccc2nnn3c4ccc(OCCN(CC)CC)cc4c(=O)c1c23 | > 100 | > 100 | 49 | > 100 | – | 54.2 | – | > 100 | – | > 100 | > 100 | 41.3 | > 100 | > 100 | > 100 | – | > 100 | > 100 | > 100 | – |
| COc1cc2c(cc1OC)C(CC1=C(c3ccccc3)CN3CCc4cc(OC)c(OC)cc4C3C1)NCC2 (configuration not stated) | 42.3 | 44.6 | 37.6 | 38.8 | 28.6 | 26.3 | 32.8 | 30.1 | 33.6 | 52.8 | 37.9 | 29.8 | 17.6 | 37.5 | – | 31.3 | 32.7 | 34.3 | 36.3 | 37.2 |
| O=S(=O)(O)CCCc1cccc2ccccc12 | > 100 | > 100 | > 100 | > 100 | > 100 | > 100 | > 100 | > 100 | > 100 | > 100 | > 100 | > 100 | > 100 | > 100 | > 100 | > 100 | > 100 | > 100 | > 100 | > 100 |
| O=c1cc[nH]c(=O)[nH]1 | – | > 920 | > 950 | 488 | > 1000 | > 1000 | > 1000 | > 1000 | 866 | > 315 | 883 | > 1000 | > 889 | > 1000 | 926 | 342 | – | > 1000 | > 1000 | 990 |
| CC(=O)OC1/C=C(\C)C(OC(C)=O)C/C=C(/C)CCC2C(/C=C/C1=O)C2(C)C (configuration not stated) | > 100 | – | > 100 | > 100 | – | > 100 | > 100 | – | > 100 | > 100 | > 100 | > 100 | > 100 | > 100 | > 100 | > 100 | > 100 | > 100 | > 100 | > 100 |
| CC(=O)Nc1ccc(N=Nc2c(O)c(S(=O)(=O)O)cc3cc(S(=O)(=O)O)ccc23)cc1 | > 100 | > 100 | – | > 100 | – | > 100 | > 100 | > 100 | – | > 100 | – | > 100 | > 100 | > 100 | – | > 100 | > 100 | > 100 | > 100 | > 100 |
| C[n+]1c2ccc(Cl)cc2nc2cc(-c3ccccc3)ccc21 | 39.7 | 37.7 | > 100 | 29.9 | 10.7 | > 100 | 35.4 | 66.8 | > 100 | 23.2 | 67.3 | 40.5 | 55.2 | 35.5 | 34 | 24.3 | 43.2 | 32.9 | 43.8 | 44.2 |
| O=C(O)C(O)C(O)C(O)C(O)c1nc2ccccc2s1 (configuration not stated) | 33.2 | 33.5 | > 100 | 35.8 | 46 | 41.9 | 24.7 | – | 36.7 | 66.1 | 31.6 | 50.2 | 32.6 | 29 | 34.1 | 74.1 | 29.3 | 30.9 | 28.8 | 66.4 |
| O=C1c2cccc3c2C(=O)c2c(cccc21)OCCOCCOCCOCCO3 | > 100 | > 100 | > 100 | > 100 | > 100 | > 100 | > 100 | > 100 | > 100 | > 100 | > 100 | > 100 | > 100 | > 100 | > 100 | > 100 | > 100 | > 100 | > 100 | > 100 |
| Cc1n(Cc2ccccc2)c2c([n+]1C)C(=O)c1ccccc1C2=O | 11.4 | 11.3 | > 100 | 1.01 | – | 0.353 | 0.127 | 1.66 | 0.401 | 0.177 | 0.5 | 0.812 | 2.42 | 0.143 | 0.179 | 0.0509 | 1.67 | 0.14 | 0.451 | 0.514 |
| Cc1c(O)ccc2c(O)c(NC(=O)c3ccc4c(c3)CCC(C)(C)O4)c(=O)oc12 | > 100 | > 100 | > 100 | > 100 | > 100 | > 100 | > 100 | > 100 | > 100 | > 100 | > 100 | > 100 | > 100 | > 100 | > 100 | > 100 | > 100 | > 100 | > 100 | > 100 |
| Nc1c(C(=O)O)nnc2ccc(Cl)cc12 | > 100 | > 100 | > 100 | > 100 | > 100 | > 100 | > 100 | > 100 | > 100 | > 100 | > 100 | > 100 | – | > 100 | > 100 | > 100 | > 100 | > 100 | > 100 | > 100 |
| O=c1sc2ccccc2n1CC1CS1 (configuration not stated) | > 100 | > 100 | > 100 | > 100 | > 100 | > 100 | > 100 | > 100 | > 100 | – | > 100 | > 100 | > 100 | > 100 | > 100 | – | > 100 | – | > 100 | > 100 |
| C=CCc1c(O)c2c(c3oc(=O)cc(C)c13)CC(C)O2 (configuration not stated) | > 100 | > 100 | > 100 | > 100 | > 100 | > 100 | > 100 | > 100 | > 100 | > 100 | > 100 | > 100 | > 100 | > 100 | > 100 | > 100 | > 100 | > 100 | > 100 | > 100 |
| CC(C)Cc1ccc(C(C)C(=O)N2CCN(/C=C/c3ccccc3)CC2)cc1 (configuration not stated) | – | – | 37.1 | 35 | 18.7 | 28 | 28.7 | 29.3 | 33.1 | 27.1 | 32.9 | 25.6 | 30.8 | 32 | 28.9 | 26 | – | 31.4 | 26.3 | 18.1 |
| CCOc1ncn(-c2ccc(NC(=S)Nc3ncccn3)cc2)n1 | – | – | 59.1 | > 100 | 65.2 | 25.7 | > 100 | > 100 | 37.9 | > 100 | > 100 | > 100 | – | > 100 | 33.5 | 44.9 | > 100 | > 100 | 91 | – |
| CCCC(=O)OCC1OC(n2ccc(N)nc2=O)C(OC(=O)CCC)C1OC(=O)CCC (configuration not stated) | – | > 100 | > 100 | 16.8 | 25.1 | > 100 | > 100 | > 100 | > 100 | > 100 | > 100 | > 100 | > 100 | > 100 | > 100 | > 100 | – | > 100 | > 100 | > 100 |
